Assay results as given in US20100324075A1, “THERAPEUTIC USE OF CARBOXYL ESTER LIPASE INHIBITORS” (UNIVERSITY OF CINCINNATI, priority 2007, published 2010).

How the values were obtained:
[1] = target: T1, CEL (Homo sapiens, UniProt P19835); test: Serum HDL, LDL and VLDL cholesterol in a patient with suboptimal HDL given a CEL inhibitor; type: in vivo; conditions: daily oral dose 1 mg per kg, two weeks
T1 construct: The patient takes a daily oral dose of 1 mg per kg body of weight; from tissue; host or cells: whole organism: patient (endogenous enzyme)
T1 sequence (P19835 21-753): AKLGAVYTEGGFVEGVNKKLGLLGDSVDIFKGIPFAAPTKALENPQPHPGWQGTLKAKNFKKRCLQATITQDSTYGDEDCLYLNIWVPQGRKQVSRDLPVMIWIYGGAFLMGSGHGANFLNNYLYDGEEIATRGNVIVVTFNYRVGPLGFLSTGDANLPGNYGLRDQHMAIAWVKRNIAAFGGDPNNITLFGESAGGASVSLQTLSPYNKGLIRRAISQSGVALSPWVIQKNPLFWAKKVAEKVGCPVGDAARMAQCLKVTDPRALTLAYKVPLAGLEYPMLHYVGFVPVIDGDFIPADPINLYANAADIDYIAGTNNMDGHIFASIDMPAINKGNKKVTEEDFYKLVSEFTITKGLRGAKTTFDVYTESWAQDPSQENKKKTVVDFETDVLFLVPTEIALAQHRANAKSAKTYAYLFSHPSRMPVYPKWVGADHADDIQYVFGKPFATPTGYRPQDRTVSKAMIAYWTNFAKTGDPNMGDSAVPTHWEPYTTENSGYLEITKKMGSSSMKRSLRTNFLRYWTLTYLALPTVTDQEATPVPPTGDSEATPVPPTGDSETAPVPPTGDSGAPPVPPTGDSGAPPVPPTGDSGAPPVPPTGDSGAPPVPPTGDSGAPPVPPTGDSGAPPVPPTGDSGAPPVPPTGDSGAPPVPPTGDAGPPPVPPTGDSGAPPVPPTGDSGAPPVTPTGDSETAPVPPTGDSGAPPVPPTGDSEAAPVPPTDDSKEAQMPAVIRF
Method: A patient with suboptimal HDL cholesterol level, which is not the result of a known genetic or other predisposing condition, is prescribed (1,5-dimethylhexyl)carbamic acid 4-phenoxyphenyl ester to raise serum HDL levels. The patient takes a daily oral dose of 1 mg per kg body of weight for a period of two weeks, after which serum cholesterol in HDL, LDL, and VLDL is again measured. It is determined that HDL cholesterol has increased by 15-20%, that the ratio of HDL:LDL has increased, and that VLDL is decreased, such that risk for cardiovascular disease is reduced.
A patient with suboptimal HDL cholesterol level, which is not the result of a known genetic or other predisposing condition, is prescribed 4-methyl-1-piperidinecarboxylic acid 4-phenoxyphenyl ester to raise serum HDL levels. The patient takes a daily oral dose of 1 mg per kg body of weight for a period of two weeks, after which serum cholesterol in HDL, LDL, and VLDL is again measured. It is determined that HDL cholesterol has increased by 15-20%, that the ratio of HDL:LDL has increased, and that VLDL is decreased, such that risk for cardiovascular disease is reduced.

[2] = target: T2, CEL (Mus musculus, UniProt Q64285); test: Daily fecal cholesterol (neutral sterol) excretion in mice fed CEL inhibitor in chow (reverse cholesterol transport); type: in vivo; conditions: C57BL/6 mice
T2 construct: from tissue; host or cells: whole animal: wild-type C57BL/6 mice (CEL made by pancreas and liver)
T2 sequence (Q64285 21-599): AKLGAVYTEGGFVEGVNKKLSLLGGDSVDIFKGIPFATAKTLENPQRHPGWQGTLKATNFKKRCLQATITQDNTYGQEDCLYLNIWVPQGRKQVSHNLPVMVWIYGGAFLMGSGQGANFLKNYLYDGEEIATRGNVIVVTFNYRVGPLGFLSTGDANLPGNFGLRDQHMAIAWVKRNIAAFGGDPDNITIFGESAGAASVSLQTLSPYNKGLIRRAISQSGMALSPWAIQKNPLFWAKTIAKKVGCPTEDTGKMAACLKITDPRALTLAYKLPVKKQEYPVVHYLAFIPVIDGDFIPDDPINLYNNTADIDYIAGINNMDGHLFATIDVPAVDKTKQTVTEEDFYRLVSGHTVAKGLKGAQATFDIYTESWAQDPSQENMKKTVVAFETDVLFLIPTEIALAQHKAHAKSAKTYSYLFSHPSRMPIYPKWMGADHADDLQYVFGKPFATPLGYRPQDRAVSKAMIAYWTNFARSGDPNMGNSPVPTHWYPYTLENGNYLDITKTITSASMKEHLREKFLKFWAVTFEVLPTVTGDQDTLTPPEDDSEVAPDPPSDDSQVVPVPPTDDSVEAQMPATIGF
Method: FIG. 8. Excretion of neutral sterol mass is increased by feeding CEL inhibitor (1,5-dimethylhexyl)carbamic acid 4-phenoxyphenyl ester to normal C57BL/6 mice. Inhibitor was mixed with standard rodent chow and fed to mice after baseline excretion was determined. Sterol excretion was again determined after 2 weeks of inhibitor treatment. The change from baseline is plotted for each mouse (n=13).
Animals were individually housed in cages fitted with a wire platform with full access to food and water. After a 1 or 2 day acclimation period, feces were collected for 72 h and sterols were quantitated using a variation of the method described by Post et al. (Post, et al., Increased fecal bile acid excretion in transgenic mice with elevated expression of human phospholipid transfer protein. Arterioscler. Thromb. Vasc. Biol. 23:892-97 (2003)). After being dried and weighed, fecal material was ground to a fine powder. 5α-cholestane (40 μg) and [24-^14C]-taurocholic acid (0.02 μCi) were added to 0.5 g of the ground fecal material as internal standards for extraction efficiency of neutral and acidic sterols, respectively. The fecal material plus standards were suspended in 10 volumes of alkaline methanol (0.2 M NaOH in 80% methanol), incubated at 80° C. for 2 hr, and neutral sterols were separated by 3 extractions with equal volumes of petroleum ether. The combined organic fractions were evaporated under nitrogen, resuspended in hexane, and a portion was used to measure neutral sterols by gas chromatography (Shimadzu Scientific Instruments). Data reported represent the sum of areas under the curves for cholesterol, coprostanol, and lathosterol. The aqueous residue from above was filtered, washed, dried, resuspended in water, and applied to prewashed C18 Bond Elut columns (Varian Inc., Palo Alto, Calif.). Bile acids were eluted from the columns with methanol, concentrated and quantitated by colorimetric assay (Trinity Biotech). To measure fecal sterol esters, ground fecal samples were resuspended in water, extracted with petroleum ether, concentrated, resolved by TLC as above and visualized at 80° C. after staining with 10% phosphomolybdic acid in ethanol, or bands were scraped and quantitated by scintillation spectrometry.
The effect of (1,5-dimethylhexyl)carbamic acid 4-phenoxyphenyl ester on cholesterol disposal has been measured in C57BL/6 mice. Baseline daily fecal cholesterol disposal by chow-fed mice was measured over 3 days using established methods. Thereafter, the same mice were fed a chow diet to which had been added 1 milligram of (1,5-dimethylhexyl)carbamic acid 4-phenoxyphenyl ester per gram of food. The average body weight of the mice was 24 grams. Mice of this size are known to eat between 3.5 and 4 grams of chow per day. Thus, the amount of inhibitor consumed was between 3.5 and 4.0 milligrams per mouse per day or between 146 and 167 milligrams per kilogram of bodyweight. After eating inhibitor-containing diet for 2 weeks, daily fecal cholesterol excretion was again measured over 3 days. […] The average excretion at baseline was 48.9±11.3 micrograms per day per gram bodyweight (range 28.6 to 71.8), which increased to 62.1±10.4 micrograms per day per gram bodyweight (range 45.3 to 89.1) after treatment. The average change per mouse was +33.0% (range −19.3 to +95.4), with 10 of the 13 mice responding positively, 1 showing no change and 2 responding negatively).

Row | SMILES | VLDL [1] | increase in HDL cholesterol [1] | ratio of HDL:LDL [1] | average change per mouse in cholesterol excretion from baseline ([2]; 1 mg/g chow, 2 weeks, n=13, range −19.3 to +95.4) | mice responding positively (increased cholesterol excretion) ([2]; 1 mg/g chow, 2 weeks, 1 no change, 2 negative) | cholesterol excretion, paired data analysis vs baseline ([2]; 1 mg/g chow, 2 weeks, P=0.01) | average increase in cholesterol excretion over baseline, of those that responded positively ([2]; 1 mg/g chow, 2 weeks, positive responders only) | average fecal cholesterol excretion after treatment ([2]; 1 milligram inhibitor per gram chow for 2 weeks, n=13, baseline 48.9±11.3)
1 | CC1CCN(C(=O)Oc2ccc(Oc3ccccc3)cc2)CC1 [4-methyl-1-piperidinecarboxylic acid 4-phenoxyphenyl ester] | decreased | 15-20% | increased |  |  |  |  | 
2 | CC(C)CCCC(C)NC(=O)Oc1ccc(Oc2ccccc2)cc1 (centres unmarked) [(1,5-dimethylhexyl)carbamic acid 4-phenoxyphenyl ester] | decreased | 15-20% | increased | +33.0% | 10 of the 13 | significantly increased | 46.7% | 62.1±10.4 micrograms per day per gram bodyweight
